Test results from ChEMBL document CHEMBL1150429, “Synthesis and biological evaluation of D-amino acid oxidase inhibitors” (J Med Chem, 2008).
pIC50: −log10 of the molar value. Calls of active or inactive are those of the source. No cut-off for these calls is given here.

target: D-amino-acid oxidase (Sus scrofa, UniProt P00371); test: Inhibition of pig D-amino acid oxidase
Sequence (P00371 whole entry): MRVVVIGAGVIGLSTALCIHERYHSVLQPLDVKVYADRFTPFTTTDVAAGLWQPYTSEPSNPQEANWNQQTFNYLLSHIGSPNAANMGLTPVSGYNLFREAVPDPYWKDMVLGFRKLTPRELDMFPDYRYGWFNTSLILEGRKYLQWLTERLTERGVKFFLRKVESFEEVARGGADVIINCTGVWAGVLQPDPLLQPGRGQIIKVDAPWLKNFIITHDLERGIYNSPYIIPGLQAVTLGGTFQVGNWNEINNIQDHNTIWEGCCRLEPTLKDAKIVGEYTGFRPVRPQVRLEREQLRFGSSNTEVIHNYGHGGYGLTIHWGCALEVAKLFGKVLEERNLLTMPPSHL

SMILES	pIC50
Oc1noc2c(F)cccc12	4.64
NCc1cc(=O)[nH]o1 [MUSCIMOL]	< 4.00
Oc1noc2c(F)c(C(F)(F)F)ccc12	< 4.00
Cc1c(C[C@H](N)C(=O)O)o[nH]c1=O	< 4.00
Oc1noc2cccc(F)c12	5.11
COc1noc2cc(Cl)ccc12	< 4.00
Cc1cccc2c(O)noc12	< 4.00
CCOc1ccc2c(O)noc2c1	< 4.00
O=c1[nH]oc2cccc(C(F)(F)F)c12	< 4.00

Now those with a higher pIC50, led by results:

pIC50	SMILES
5.30	O=c1[nH]oc2cc(C(F)(F)F)ccc12
5.53	O=c1[nH]oc2ccc([N+](=O)[O-])cc12
5.59	COc1ccc2c(O)noc2c1
5.73	Oc1noc2ccccc12
5.82	Oc1noc2ccc(I)cc12
6.14	O=[N+]([O-])c1ccc2c(O)noc2c1
6.22	Oc1noc2ccc(Br)cc12
6.35	Oc1noc2cc(F)ccc12
6.57	Cc1ccc2c(O)noc2c1
6.73	Oc1noc2cc(Cl)ccc12

system: Rattus norvegicus; test: Increase in D-serine level in Sprague-Dawley rat plasma at 30 mg/kg, po coadministered with D-serine; format: functional, organism-based; design: dose 30 mg/kg

SMILES	Activity
Oc1noc2cc(Cl)ccc12	Active

system: Rattus norvegicus; test: Increase in D-serine level in Sprague-Dawley rat prefrontal cortex at 30 mg/kg, po coadministered with D-serine; format: functional

SMILES	Activity [%]
Oc1noc2cc(Cl)ccc12	>60

system: Rattus norvegicus; test: Increase in D-serine level in Sprague-Dawley rat prefrontal cortex at 30 mg/kg, po; format: functional, organism-based; design: dose 30 mg/kg

SMILES	Activity
Oc1noc2cc(Cl)ccc12	inactive
